The values that follow come from US7253154B2, “Substituted thiazolopyrimidines as xanthine oxidase inhibitors” (Nippon Chemiphar Co., Ltd., priority 2001, dated 2007).

Assay [1] concerns the target T1, Cow milk Xanthine Oxidase (Bos taurus, UniProt P80457).
T1 construct: Cow milk Xanthine Oxidase (Roche); purchased Roche; host or cells: cow milk
As to the kind of experiment: Xanthine oxidase inhibiting action, in vitro test (oxidation of xanthine, absorbance OD 290). Particulars: Cow milk xanthine oxidase (Roche), xanthine substrate, 50 mM phosphate buffer pH 7.5, 37° C., 15 min. The assay is classed as biochemical. Here is the method:
Pharmacological Experiment 1 (In Vitro Test)
1. Preparation of Test Sample
250 gL of each of the solutions of the test compound having different concentrations was added to 1 mL of a solution of Xanthine (SIGMA, 300 µM) in the 50 mM phosphor buffer (pH 7.5). The mixture was then pre-incubated at 37° C. for 10 min. Subsequently, to the pre-incubated mixture was added […] of Cow milk Xanthine Oxidase (Roche) diluted with the 50 mM phosphate buffer (pH 7.5) to give a solution of 30 mU concentration. The mixture was then kept at 37° C. for 15 min for performing a reaction. The reaction was terminated by addition of 1N hydrochloric acid. Subsequently, the absorbance ([…]) was measured by means of a spectrophotometer (HITACHI U-2000), to obtain the inhibition ratio.
The inhibition ratio was calculated according to the following formula: Inhibition ratio(%)=[1−(B−C)/(A−C)]×100
B: absorbance measured in the case of using test compound

For another assay, the target named is T2, xanthine oxidase (Mus musculus, UniProt Q00519).
T2 construct: ICR mouse (Japan Charles River Co., Ltd., 6 W) was employed as test animal; from tissue; host or cells: living ICR mouse (whole animal; plasma uric acid measured)
T2 sequence (Q00519 whole entry): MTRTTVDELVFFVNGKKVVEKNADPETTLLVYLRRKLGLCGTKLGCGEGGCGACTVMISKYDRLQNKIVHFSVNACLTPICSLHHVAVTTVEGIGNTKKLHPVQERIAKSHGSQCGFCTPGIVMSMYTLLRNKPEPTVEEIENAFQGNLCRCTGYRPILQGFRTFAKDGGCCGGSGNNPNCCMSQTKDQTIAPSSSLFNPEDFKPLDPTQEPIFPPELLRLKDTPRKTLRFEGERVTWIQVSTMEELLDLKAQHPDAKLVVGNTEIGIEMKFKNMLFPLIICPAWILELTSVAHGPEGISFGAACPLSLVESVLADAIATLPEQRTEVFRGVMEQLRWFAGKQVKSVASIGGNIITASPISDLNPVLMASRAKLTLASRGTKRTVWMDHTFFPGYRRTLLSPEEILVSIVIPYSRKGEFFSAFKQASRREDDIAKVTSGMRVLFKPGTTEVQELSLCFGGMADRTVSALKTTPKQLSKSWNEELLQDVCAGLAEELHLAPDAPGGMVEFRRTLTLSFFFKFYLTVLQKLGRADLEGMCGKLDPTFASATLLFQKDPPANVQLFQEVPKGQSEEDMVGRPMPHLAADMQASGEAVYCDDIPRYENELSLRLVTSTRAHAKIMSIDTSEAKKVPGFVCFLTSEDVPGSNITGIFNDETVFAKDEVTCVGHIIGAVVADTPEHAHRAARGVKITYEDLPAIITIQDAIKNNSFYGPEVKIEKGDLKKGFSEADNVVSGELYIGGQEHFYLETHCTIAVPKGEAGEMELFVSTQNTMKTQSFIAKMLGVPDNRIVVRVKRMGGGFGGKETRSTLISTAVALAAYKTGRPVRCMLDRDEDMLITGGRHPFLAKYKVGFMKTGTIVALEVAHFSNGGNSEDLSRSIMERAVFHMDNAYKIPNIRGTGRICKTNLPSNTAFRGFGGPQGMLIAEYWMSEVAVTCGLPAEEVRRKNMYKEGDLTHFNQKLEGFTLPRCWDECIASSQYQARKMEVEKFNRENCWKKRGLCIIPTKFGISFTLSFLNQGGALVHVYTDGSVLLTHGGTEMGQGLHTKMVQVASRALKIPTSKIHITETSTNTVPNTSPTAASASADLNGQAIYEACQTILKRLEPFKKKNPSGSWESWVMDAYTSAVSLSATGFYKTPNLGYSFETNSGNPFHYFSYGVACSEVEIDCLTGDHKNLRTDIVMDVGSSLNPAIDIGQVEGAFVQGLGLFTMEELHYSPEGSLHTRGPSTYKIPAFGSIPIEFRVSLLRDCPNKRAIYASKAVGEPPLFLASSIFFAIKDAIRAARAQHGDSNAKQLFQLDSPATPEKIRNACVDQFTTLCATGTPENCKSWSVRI
As to the kind of experiment: In vivo test: uric acid value in plasma of mouse after oral administration. The following applies: ICR mouse, 3 mg/10 mL/kg single oral administration, blood collected after one hour. The text has this:
The xanthine oxidase inhibiting action was further confirmed in vivo tests by measuring the uric acid concentration in a plasma obtained from mouse into which the compound of the invention had been orally administered. See Example 1-B, Table 21.
Pharmacological Experiment 2 (In Vivo Test)
1. Test Animals, and Grouping
ICR mouse (Japan Charles River Co., Ltd., 6 W) was employed as test animal. One group comprised mice, and a vehicle control group was set for each experiment.
2. Preparation and Administration of the Test Compound
The test compound was suspended in aqueous […] methylcellulose solution to for administration.
Dosage is 3 mg/10 mL/kg for each of the control groups and all test groups. The administration was made by single oral administration.
3. Procedure of Experiment
The test compound was orally administered once, and the whole blood was collected from main artery in the presence of heparin after one hour. From the collected whole blood was separated plasma in the conventional manner, and the plasma was subjected to measurement of uric acid value by the enzyme method by means of an automatic analytical apparatus (HITACHI 7060E).
The inhibition ratio was calculated according to the following formula: Inhibition ratio(%)=[…]
A: average uric acid value in plasma of the group into which the test compound was administered.
B: average uric acid value in plasma of the vehicle control group

Each structure is given as a SMILES string.

T1 sequence (P80457 whole entry): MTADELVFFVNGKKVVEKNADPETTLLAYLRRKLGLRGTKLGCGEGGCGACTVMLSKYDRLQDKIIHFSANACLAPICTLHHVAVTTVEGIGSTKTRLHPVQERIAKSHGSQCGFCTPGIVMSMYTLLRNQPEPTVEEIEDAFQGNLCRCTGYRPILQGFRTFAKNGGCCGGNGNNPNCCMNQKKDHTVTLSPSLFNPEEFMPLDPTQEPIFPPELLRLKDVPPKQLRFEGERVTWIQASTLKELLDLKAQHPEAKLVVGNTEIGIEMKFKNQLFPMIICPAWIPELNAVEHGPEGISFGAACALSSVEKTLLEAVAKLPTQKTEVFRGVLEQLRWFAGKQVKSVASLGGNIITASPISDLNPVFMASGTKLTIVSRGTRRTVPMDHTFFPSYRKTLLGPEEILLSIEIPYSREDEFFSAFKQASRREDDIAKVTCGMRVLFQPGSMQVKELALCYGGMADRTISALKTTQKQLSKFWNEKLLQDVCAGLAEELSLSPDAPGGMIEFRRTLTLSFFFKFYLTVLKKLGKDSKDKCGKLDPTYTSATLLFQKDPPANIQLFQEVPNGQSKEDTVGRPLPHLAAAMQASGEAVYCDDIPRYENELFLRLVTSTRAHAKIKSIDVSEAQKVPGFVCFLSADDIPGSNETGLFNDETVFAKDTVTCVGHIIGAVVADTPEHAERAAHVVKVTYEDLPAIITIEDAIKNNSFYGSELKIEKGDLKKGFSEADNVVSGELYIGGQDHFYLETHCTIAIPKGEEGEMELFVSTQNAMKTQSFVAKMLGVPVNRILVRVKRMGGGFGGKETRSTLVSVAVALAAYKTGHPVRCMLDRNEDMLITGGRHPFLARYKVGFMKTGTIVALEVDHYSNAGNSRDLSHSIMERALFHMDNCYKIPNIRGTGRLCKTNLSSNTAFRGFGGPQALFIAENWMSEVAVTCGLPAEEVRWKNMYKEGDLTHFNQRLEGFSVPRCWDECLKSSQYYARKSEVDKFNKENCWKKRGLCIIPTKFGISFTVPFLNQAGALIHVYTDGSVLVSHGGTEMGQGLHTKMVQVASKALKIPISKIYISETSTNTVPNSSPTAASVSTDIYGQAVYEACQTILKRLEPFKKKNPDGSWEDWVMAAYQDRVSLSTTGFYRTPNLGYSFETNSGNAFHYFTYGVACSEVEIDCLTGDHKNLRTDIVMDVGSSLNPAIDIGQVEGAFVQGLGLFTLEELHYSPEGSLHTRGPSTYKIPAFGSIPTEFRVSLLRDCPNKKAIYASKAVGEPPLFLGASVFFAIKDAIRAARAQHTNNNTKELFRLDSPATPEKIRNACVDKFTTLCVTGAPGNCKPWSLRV

As a reminder, the IC50 is the concentration at which inhibition is half-maximal. The low end stands for greater potency in that assay, the high end for weaker potency in that assay. Consider `CC(C)COc1ccc(-c2nc3ncnc(Cl)c3[nH]2)cc1[N+](=O)[O-]` [Example 1-A, 8-(4-Isobutoxy-3-nitrophenyl)-6-chloropurine], for which, in assay [1], the IC50 was found to be 63.2 nM.

As to `CC(C)COc1ccc(-c2nc3c(N)ncnc3o2)cc1[N+](=O)[O-]` [Example 1-B, 6-amino-8-(4-isobutoxy-3-nitrophenyl)oxazolo[4,5-d]pyrimidine], the “Inhibition ratio (plasma uric acid value vs vehicle control group)” value (“Inhibition ratio” for short) on xanthine oxidase turned out to be 60.7%. This compound also showed an IC50 in assay [1] of 44.8 nM.

In turn, `CC(C)COc1ccc(-c2nc3ncnc(O)c3[nH]2)cc1[N+](=O)[O-]` [Example 2, 8-(4-Isobutoxy-3-nitrophenyl)-6-hydroxypurine] came in with an IC50 in assay [1] of 11.1 nM.

Take `CC(C)COc1ccc(-c2nc3ncnc(N)c3[nH]2)cc1[N+](=O)[O-]` [Example 6, 6-Amino-8-(4-isobutoxy-3-nitrophenyl)purine]: the “Inhibition ratio” value at xanthine oxidase turned out to be 63.8%. In assay [1], this compound gave an IC50 of 75.9 nM.

On to `CC(C)COc1ccc(-c2nc3c(O)cccc3[nH]2)cc1[N+](=O)[O-]` [Example 7, 4-Hydroxy-2-(4-isobutoxy-3-nitrophenyl)-1H-benzimidazole], for which the IC50 in assay [1] turned out to be 102 nM.

Consider `CC(C)COc1ccc(-c2nc3cccc(C(=O)O)c3o2)cc1[N+](=O)[O-]` [Example 8, 2-(4-Isobutoxy-3-nitrophenyl)benzoxazole-7carboxylic acid], for which the “Inhibition ratio” value on xanthine oxidase turned out to be 56.8%. In assay [1], this compound returned an IC50 of 18.6 nM.

In assay [1], `CC(C)COc1ccc(-c2nc3ccncc3[nH]2)cc1[N+](=O)[O-]` [Example 9, 2-(4-Isobutoxy-3-nitrophenyl)-3H-imidazo[4,5-c]pyridine] showed a 50% inhibitory concentration (IC50) of 58.4 nM.

`CC(C)COc1ccc(-c2nc3cccc(C(=O)O)c3s2)cc1C#N` [Example 10, 2-(3-Cyano-4-isobutyloxyphenyl)-1,3-benzothiazole-7-carboxylic acid]: on xanthine oxidase, the “Inhibition ratio” value is recorded as 56.1%. Moreover, the IC50 in assay [1] turned out to be 50 nM.

On to `CC(C)COc1ccc(-c2nc3c(C(=O)O)cccc3[nH]2)cc1C#N` [Example 11, 2-(3-Cyano-4-isobutyloxyphenyl)benzimidazole-7-carboxylic acid], for which the “Inhibition ratio” value at xanthine oxidase was 51.4%. This compound returned an IC50 in assay [1] of 22.3 nM.

Regarding `CC(C)COc1ccc(-c2nc3cccc(O)c3s2)cc1C#N` [Example 12, 2-(3-Cyano-4-isobutyloxyphenyl)-7-hydroxy 1,3-benzothiazole], in assay [1], the concentration for half-maximal inhibition (IC50) came out at 161 nM.
